Patent publication EP1455790B1, “USE OF PYRIDINE-2,4-DICARBOXYLIC ACID DIAMIDES AND OF PYRIMIDINE-4,6-DICARBOXYLIC ACID DIAMIDES FOR SELECTIVE COLLAGENASE INHIBITION” (Sanofi-Aventis Deutschland GmbH, priority 2001, dated 2003)
Where two headings read alike, the source gives them in different places.

Biological target: T1, katalytischen Domäne der humanen Kollagenase -3(MMP-13) (Homo sapiens, UniProt P45452)
T1 construct: Die Enzymlösung enthält 1,67 µg/mL der Enzymdomäne; purchased INVITEK, Berlin 30100 803
Assay: Enzymatic activity of the catalytic domain of human collagenase-3 (MMP-13), fluorogenic substrate
Type: biochemical
Procedure: Aktivierung des Proenzyms: 2 Volumenanteile Proenzym werden mit 1 Volumenanteil APMA-Lösung bei 37 °C für 1,5 Stunden inkubiert. Die APMA-Lösung wird aus einer 10 mmol/L p-Aminophenyl-Mercuric Acetate Lösung in 0,1 mmol/L NaOH durch Verdünnen mit 3 Volumenteile Tris/HCl Puffer pH7,5 (siehe unten) hergestellt. Der pH-Wert wird durch Zugabe von 1 mmol/L HCl zwischen 7;0 und 7,5 eingestellt. Nach der Aktivierung des Enzyms wird dieses mit dem Tris/HCl Puffer auf eine Konzentration von 1,67 µg/mL verdünnt.
Zur Messung der Enzymaktivität werden 10 µL Enzymlösung mit 10 µL einer 3%igen (v/v) gepufferten Dimethylsulfoxid-Lösung (Reaktion 1) für.15 Minuten inkubiert. Zur Messung der Enzyminhibitoraktivität werden 10 µL Enzymlösung mit 10 µL einer 3%igen (v/v) gepufferten Dimethylsulfoxid-Lösung, die den Enzyminhibitor enthält, inkubiert (Reaktion 2).
Die Enzymaktivität wird dargestellt als Extinktionszunahme/Minute. […] Die Pufferlösung enthält 0,05% Brij (Sigma, Deisenhofen, Deutschland) sowie 0,1 mol/L Tris/HCI, 0,1 mol/L NaCI, 0,01 mol/L CaCl2 (pH=7,5). Die Enzymlösung enthält 1,67 µg/mL der Enzymdomäne. Die Substratlösung enthält 0,75 mmol/L des fluorogenen Substrates (7-Methoxycoumarin-4-yl)acetyl-Pro-Leu-Gly-Leu-3-(2',4'-dinitrophenyl)-L-2,3-diaminopropionyl-Ala-Arg-NHz (Bachem, Heidelberg, Deutschland).

IC50 (catalytic domain, APMA-activated pro-enzyme, Tris/HCl buffer pH 7,5, read-out: IC50 MMP13) [µM] | SMILES | IC50 (comparative example, same method as Table 4, read-out: IC50-Wertes für die Inhibition der humanen Kollagenase -3 (MMP-13)) [µM]
0.4 | O=C(NCc1ccccc1)c1cc(C(=O)NCc2ccccc2)ncn1 [Beispiel 1, Pyrimidin-4,6-dicarbonsäure-dibenzylamid] | 
 | CCNC(=O)c1cc(C(=O)NCC)ncn1 [Pyrimidin-4,6-dicarbonsäurediethylamid] | 90
